The target of assay [1] is acetylcholinesterase (Homo sapiens, UniProt P22303). As to the kind of experiment: Acetylcholinesterase Inhibition Assay (photometric method). The assay is classed as biochemical.
Assay [2] deals with mice. It counts as in vivo. Particulars: SDDA; dose 0.003 mg/kg, s.c.; retest after 24 hours. The method, then: This utility can also be ascertained by determining the ability of these compounds to restore cholinergically deficient memory in the Dark Avoidance Assay. In this assay mice are tested for their ability to remember an unpleasant stimulus for a period of 24 hours. A mouse is placed in a chamber that contains a dark compartment; a strong incandescent light drives it to the dark compartment, where arn electric shock is administered through metal plates on the floor. The animal is removed from the testing apparatus and tested again, 24 hours later, for the ability to remember the electric shock.
If scopolamine, an anticholinergic that is known to cause memory impairment, is administered before an animal's initial exposure to the test chamber, the animal re-enters the dark compartment shortly after being placed in the test chamber 24 hours later. This effect of scopolamine is blocked by an active test compounds, resulting in a greater interval before re-entry into the dark compartment.
The test results are expressed as the percent of a group of animals in which the effect of scopolanine is blocked, as manifested by an increased interval between being placed in the test chamber and re-entering the dark compartment. Results of Dark Avoidance Assay for some of the compounds of this invention are presented in Table II along with a result for a reference compounds.

Where a name gives a salt, the structure may show the parent alone. Read-outs that look alike come from different tables or passages of the source.

acetylcholinesterase, sequence (P22303 32-614): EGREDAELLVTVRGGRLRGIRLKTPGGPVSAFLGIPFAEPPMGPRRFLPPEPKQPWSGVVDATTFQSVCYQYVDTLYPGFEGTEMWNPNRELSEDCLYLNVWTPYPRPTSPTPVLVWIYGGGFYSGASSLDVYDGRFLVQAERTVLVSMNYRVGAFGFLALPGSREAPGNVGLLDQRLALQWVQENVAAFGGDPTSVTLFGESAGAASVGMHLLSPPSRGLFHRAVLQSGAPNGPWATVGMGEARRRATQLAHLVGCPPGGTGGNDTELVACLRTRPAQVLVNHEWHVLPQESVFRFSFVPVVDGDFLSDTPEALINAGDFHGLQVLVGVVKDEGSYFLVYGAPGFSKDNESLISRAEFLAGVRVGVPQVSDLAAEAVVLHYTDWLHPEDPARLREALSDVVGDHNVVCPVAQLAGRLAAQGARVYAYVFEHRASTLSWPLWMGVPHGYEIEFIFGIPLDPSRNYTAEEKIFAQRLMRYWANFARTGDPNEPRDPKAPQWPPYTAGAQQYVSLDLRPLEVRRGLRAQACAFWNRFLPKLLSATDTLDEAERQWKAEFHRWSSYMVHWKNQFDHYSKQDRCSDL

Regarding `CNC(=O)Oc1ccc2c3c1O[C@H]1C[C@@H](OC(=O)C(C)C)C=C[C@@]31CCN(C)C2` [6-O-Demethy-6-O-(methylaminocarbonyl)-3-O-(propan-2-yl-carbonyl)galanthamine Hydrochloride], the half-inhibitory concentration (IC50) (as a rule, the concentration that inhibits the measured activity by half) in assay [1] turned out to be 47 nM. `CNC(=O)Oc1ccc2c3c1O[C@H]1C[C@@H](O)C=C[C@@]31CCN(C)C2` [6-O-Demethyl-6-O-(methylaminocarbonyl)galanthamine]: the IC50 in assay [1] (photometric method, read-out: IC50 CHE I (acetylcholinesterase inhibition)) worked out at 2 nM. The “Percent of Animals with Scopolamine Induced Memory Deficit Reversal” value in assay [2] was 27%.

Values taken from patent US6323196A, “Galanthamine derivatives as acetylcholinesterase inhibitors” (priority 1993, dated 2001).
